This note sets out measurements from patent US9937235B2, “Lipidated peptides as anti-obesity agents” (USTAV ORGANICKE CHEMIE A BIOCHEMIE AKADEMIE VED CR, V.V.I, priority 2012, dated 2018).

Where a SMILES comes first, the peptide text is derived from it. Where no end group is shown, it is not given here. [ ]: non-standard residue; d: D form. The star is where a group is joined. 1Nal = N[C@@H](Cc1cccc2ccccc12)C(=O)O; Tridecanoyl = CCCCCCCCCCCCC(=O)*; Myristoyl = CCCCCCCCCCCCCC(=O)*; Nle = CCCC[C@H](N)C(=O)O; Dap = NC[C@H](N)C(=O)O

The target of assay [1] is T1, rat PrRP receptor (GPR10) in RC-4B/C cells (Rattus norvegicus, UniProt Q64121).
T1 construct: host or cells: RC-4B/C rat pituitary cell line
T1 sequence (Q64121 1-370): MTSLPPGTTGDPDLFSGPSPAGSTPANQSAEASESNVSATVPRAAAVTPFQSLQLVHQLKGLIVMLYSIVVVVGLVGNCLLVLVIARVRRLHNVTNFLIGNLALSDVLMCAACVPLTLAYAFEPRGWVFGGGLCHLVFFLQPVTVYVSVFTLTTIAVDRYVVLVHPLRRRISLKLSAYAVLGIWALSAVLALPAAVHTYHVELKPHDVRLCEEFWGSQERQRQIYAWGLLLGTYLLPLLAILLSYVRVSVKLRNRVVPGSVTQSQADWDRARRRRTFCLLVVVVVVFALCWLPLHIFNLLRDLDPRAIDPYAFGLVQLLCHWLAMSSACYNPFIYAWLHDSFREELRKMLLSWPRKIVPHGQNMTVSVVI
As to the kind of experiment: Competitive binding to rat pituitary RC-4B/C cells. The note with it: ^125I-rat PrRP31, RC-4B/C cells.

For assay [2], the system named is MAPK/ERK1/2 signaling pathway in RC-4B/C cells. As to the kind of experiment: MAPK/ERK1/2 signaling in RC-4B/C cells (Western blot). The note with it: 10^−6 mol·l^−1, 5 minute incubation. It counts as cell-based, rat. As to the method: RC-4B/C cells, which were used to determine if lipidated PrRP20 analogs are able to initiate the MAPK/ERK1/2 signaling pathway, were grown in 6-well plates up to the optimal density of […]. Seventeen hours before sample harvest, the growth medium was replaced by a serum-free medium lacking epidermal growth factor (EGF). The respective lipidated PrRP analog was added to each well in the final concentration of 10^−6 mol·l^−1. After a 5 minute incubation at 37° C., the plate was placed on ice and each well was rinsed three times with PBS pH 7.4 (137 mmol·l^−1 NaCl, 2.7 mmol·l^−1 KCl, 8 mmol·l^−1 Na2HPO4.2H2O a 1.76 mmol·l^−1 KH2PO4) and cooled to 4° C. […] Samples were collected in at least three independent experiments.
To determine if the lipidated PrRP20 analogs initiated the MAPK/ERK1/2 signaling pathway, Western blot analysis was used. Electrophoresis was performed on 5%/12% polyacrylamide gel in the presence of SDS (SDS-PAGE) on the instrument MiniProtean 3 (BioRad, Herkules, Calif., USA). Samples that were loaded on the gel were first disintegrated by ultrasound, then heated at 100° C. for 2 minutes, and centrifuged for 5 minutes at 500×g at room temperature. […] Electrophoresis was performed at a constant voltage of 100 V for 10 minutes, or for 60 minutes at 150 V.
To show the presence of phosphorylated proteins in the samples, the proteins from the SDS-PAGE gel were transferred to the Immobilon™-P PVDF (polyvinylidene difluoride) membrane (Sigma-Aldrich, USA). The transfer was performed in blotting buffer at pH 8.3 (25 mmol·l^−1 Tris, 192 mmol·l^−1 glycine and 20% methanol) for 20 hours at 4° C. at a constant voltage of 30 V.
After the protein transfer to the PVDF membrane, the membranes were washed for 5 minutes in TBS washing buffer (20 mmol·l^−1 Tris, 140 mmol·l^−1 NaCl and 0.1% Tween-20) and then incubated for 1 hour in blocking buffer (TBS with 5% non-fat milk powder and 5 mmol·l^−1 Na3VO4 and 50 mmol·l^−1 NaF) at room temperature. Further, the membranes were washed three times for 5 minutes using the TBS washing buffer. The membranes were then incubated with the primary antibody against phospho-p44/42 MAPK(Thr202/Tyr204) (Cell Signaling Technology, Beverly, USA) which was diluted in blocking buffer at 1:1000. After the next three washes with the TBS washing buffer for 5 minutes, the membranes were incubated for 1 hour with rabbit secondary antibody labeled with peroxidase (Sigma, St. Louis, USA) which was diluted in blocking buffer at 1:12,000.
The membranes were then washed three times in TBS washing buffer for 5 minutes and then the solution Femto (Pierce SuperSignal, Thermo Fisher Scientific, Rockford, Ill., USA) was applied. The induced chemiluminiscence was detected by a CCD camera (LAS 3000, Fuji Photo Film GmBH, Düsseldorf, Germany).
To assess the initiation of signaling pathways, a densitometric analysis using the program Quantity One (BioRad, Hercules, Calif., USA) was used. For statistical evaluation of the statistically significant response of the cellular signaling, one-way ANOVA with subsequent Dunnett post-hoc test was used. Data was statistically significant at P<0.05.

Assay [3] deals with fasted C57BL/6 mice. Nature of the assay: Food intake in fasted mice after SC administration. The note with it: for food intake / % control: SC administration; for % control: food intake vs saline. The class given is in vivo, mouse. The method in brief:
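Male C57BL/6 mice, food-deprived 17 h, received saline, PrRP or lipidated analogs either SC at 1-10 mg/kg or ICV into the third ventricle at 4 nmol/mouse.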

The subject of assay [4] is fasted C57BL/6 mice. As to the kind of experiment: Food intake in fasted mice after ICV administration. The class given is in vivo. The note with it: 4 nmol/mouse; for % control: food intake vs saline. As to the method:
Male C57BL/6 mice (An Lab, Prague 4) were bred in the accredited animal facility in the Institute of Organic Chemistry and Biochemistry, Czech Academy of Sciences, Prague, at the Institute of Molecular Genetics, Prague 4, at the temperature of 22±2° C. with access to food and water ad libitum. The day/night cycle was 12/12 hours (light turned on at 6:00 am). Animals were treated according to the Animal Protection Act (Act No. 246/1992). The males were fed standard chow diet St-1 (Mlýn Kocanda, Praha, Czech Republic) which contained 66% saccharides, 25% proteins and 9% lipids with a caloric value of 3.4 kcal/g.
The food was withdrawn 17 hours prior to injection of lipidated peptide and free access to water was maintained. The administration of saline, PrRP or lipidated analogs was performed either by SC injection at doses of 1-10 mg/kg (volume 0.2 ml/mouse), or by ICV using infusion pump (cannulae were inserted into the third brain ventricle 4 days before the experiment following the procedure of Maixnerová et al. (Maixnerová et al., 2011)). The single dose of peptide was 4 nmol/mouse (5 μl/mouse).
Fifteen minutes after the lipidated peptide administration, the mice were given pre-weighed food. The food was then weighed every 30 minutes for 5-10 hours. The administration of every dose was performed at least twice and one group of mice consisted of at least 6 mice. The results were presented as % of food intake as compared with the control group injected with saline.
Statistical evaluation was performed using program Graph-Pad Prism Software (San Diego, Calif., USA), and the one-way ANOVA with a subsequent Dunnettovým post-hoc test. The difference in food intake between mice injected with saline and mice injected with the examined peptide were considered statistically significant at P<0.05.

The mark [5] stands for this setting: 45 minutes, dose not stated for these substances.
The mark [6] stands for this setting: 300 minutes, dose not stated for these substances.

As to `CCCCCCCCCCCCC(=O)NC[C@H](N)C(=O)N[C@@H](CCCNC(=N)N)C(=O)N[C@@H](C)C(=O)N[C@@H](Cc1c[nH]cn1)C(=O)N[C@@H](CCC(N)=O)C(=O)N[C@@H](Cc1c[nH]cn1)C(=O)N[C@@H](CO)C(=O)N[C@@H](CCCC)C(=O)N[C@@H](CCC(=O)O)C(=O)N[C@H](C(=O)N[C@@H](CCCNC(=N)N)C(=O)N[C@H](C(=O)N1CCC[C@H]1C(=O)N[C@@H](CC(=O)O)C(=O)N[C@H](C(=O)N[C@@H](CC(N)=O)C(=O)N1CCC[C@H]1C(=O)N[C@@H](C)C(=O)N[C@@H](Cc1c[nH]c2ccccc12)C(=O)N[C@@H](Cc1ccc(O)cc1)C(=O)N[C@H](C(=O)NCC(=O)N[C@@H](CCCNC(=N)N)C(=O)NCC(=O)N[C@H](C(=O)N[C@@H](CCCNC(=N)N)C(=O)N1CCC[C@H]1C(=O)N[C@H](C(=O)NCC(=O)N[C@@H](CCCNC(=N)N)C(=O)N[C@@H](Cc1ccccc1)C(N)=O)C(C)C)[C@@H](C)CC)[C@@H](C)O)[C@@H](C)CC)[C@@H](C)O)[C@@H](C)O` [Analog 4] (H-[Dap](Tridecanoyl)RAHQHS[Nle]ETRTPDINPAWYTGRGIRPVGRF-NH2), the “% of PrRP31 binding” value in assay [1] is on record as 967%. Further, in assay [2], the ERK signaling entry is recorded as “agonist”. The “food intake” value with fasted C57BL/6 mice [3] (45 minutes, 5 mg/kg) was determined as 0.07 g; in the assay with fasted C57BL/6 mice [3] (300 minutes, 5 mg/kg) it was 1.04 g; in the assay on fasted C57BL/6 mice [4] (45 minutes) it was 0.38 g; in the assay with fasted C57BL/6 mice [4] (300 minutes) it was 1.4 g. The “% control” value was 30% in the assay with fasted C57BL/6 mice [3] (45 minutes, 5 mg/kg); 101% in the assay on fasted C57BL/6 mice [3] (300 minutes, 5 mg/kg); 71% with fasted C57BL/6 mice [4] (45 minutes); 105% in the assay with fasted C57BL/6 mice [4] (300 minutes).

With `CCCCCCCCCCCCCC(=O)NC[C@H](N)C(=O)N[C@@H](CCCNC(=N)N)C(=O)N[C@@H](C)C(=O)N[C@@H](Cc1c[nH]cn1)C(=O)N[C@@H](CCC(N)=O)C(=O)N[C@@H](Cc1c[nH]cn1)C(=O)N[C@@H](CO)C(=O)N[C@@H](CCCC)C(=O)N[C@@H](CCC(=O)O)C(=O)N[C@H](C(=O)N[C@@H](CCCNC(=N)N)C(=O)N[C@H](C(=O)N1CCC[C@H]1C(=O)N[C@@H](CC(=O)O)C(=O)N[C@H](C(=O)N[C@@H](CC(N)=O)C(=O)N1CCC[C@H]1C(=O)N[C@@H](C)C(=O)N[C@@H](Cc1c[nH]c2ccccc12)C(=O)N[C@@H](Cc1ccc(O)cc1)C(=O)N[C@H](C(=O)NCC(=O)N[C@@H](CCCNC(=N)N)C(=O)NCC(=O)N[C@H](C(=O)N[C@@H](CCCNC(=N)N)C(=O)N1CCC[C@H]1C(=O)N[C@H](C(=O)NCC(=O)N[C@@H](CCCNC(=N)N)C(=O)N[C@@H](Cc1cccc2ccccc12)C(N)=O)C(C)C)[C@@H](C)CC)[C@@H](C)O)[C@@H](C)CC)[C@@H](C)O)[C@@H](C)O` [Analog 9] (H-[Dap](Myristoyl)RAHQHS[Nle]ETRTPDINPAWYTGRGIRPVGR[1Nal]-NH2), the “% of PrRP31 binding” value in assay [1] came out at 167%. Further, the ERK signaling entry in assay [2] is “agonist”. In addition, in the assay on fasted C57BL/6 mice [3] (SC administration, 1, 2, 5 and 10 mg/kg, FIG. 5 and 6), the “dose dependence of the lowering of food intake” value is reported as “dose dependent”. For the same compound, the “food intake” value in the assay with fasted C57BL/6 mice [3] (45 minutes, 10 mg/kg) turned out to be 0.01 g; in the assay with fasted C57BL/6 mice [3] (300 minutes, 10 mg/kg) it was 0.22 g; with fasted C57BL/6 mice [4] (45 minutes), 0.28 g; in the assay on fasted C57BL/6 mice [4] (300 minutes) it was 1.03 g. For the same compound, the “% control” value with fasted C57BL/6 mice [3] (45 minutes, 10 mg/kg) is listed as 2%; in the assay with fasted C57BL/6 mice [3] (300 minutes, 10 mg/kg) it was 25%; in the assay on fasted C57BL/6 mice [4] (45 minutes), 51%; in the assay on fasted C57BL/6 mice [4] (300 minutes), 78%.

In the case of “TPDINPAWYTGRGIRPVGRF-NH2 [PrRP20, reference compound]”, the “% of PrRP31 binding” value in assay [1] came to 143%. The ERK signaling result in assay [2] is on record as “agonist”. The “food intake” value in the assay with fasted C57BL/6 mice [3] (setting [5]) turned out to be 0.32 g; in the assay with fasted C57BL/6 mice [3] (setting [6]) it was 1.1 g; in the assay on fasted C57BL/6 mice [4] (45 minutes), 0.32 g; in the assay with fasted C57BL/6 mice [4] (300 minutes), 1.29 g. The “% control” value in the assay with fasted C57BL/6 mice [3] (setting [5]) worked out at 100%; in the assay on fasted C57BL/6 mice [3] (setting [6]), 100%; with fasted C57BL/6 mice [4] (45 minutes), 68%; in the assay with fasted C57BL/6 mice [4] (300 minutes), 100%.
